# Data: ChEMBL document CHEMBL2203227, “Macrocycles are great cycles: applications, opportunities, and challenges of synthetic macrocycles in drug discovery” (J Med Chem, 2011)
# Where a SMILES comes first, the peptide text is derived from it. [ ]: non-standard residue; d: D form. The star is where a group is joined. Hyp = O=C(O)[C@@H]1C[C@@H](O)CN1; Nva = CCC[C@H](N)C(=O)O; Bn = c1ccc(C*)cc1
# Key:
# Renin = target: T1, Renin (Homo sapiens, UniProt P00797); assay: Inhibition of renin
# T1 sequence (P00797 whole entry): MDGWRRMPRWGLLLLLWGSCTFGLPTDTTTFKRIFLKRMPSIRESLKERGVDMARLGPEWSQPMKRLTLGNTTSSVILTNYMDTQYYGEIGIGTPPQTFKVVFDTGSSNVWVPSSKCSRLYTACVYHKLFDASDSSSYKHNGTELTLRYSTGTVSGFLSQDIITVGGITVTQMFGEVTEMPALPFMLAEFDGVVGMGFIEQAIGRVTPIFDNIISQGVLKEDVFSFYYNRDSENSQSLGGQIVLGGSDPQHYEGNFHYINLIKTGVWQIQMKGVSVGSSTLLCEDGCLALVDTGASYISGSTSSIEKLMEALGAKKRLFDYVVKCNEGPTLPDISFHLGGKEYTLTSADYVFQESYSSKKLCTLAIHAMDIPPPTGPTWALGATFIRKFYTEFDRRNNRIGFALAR
# [1] = Inhibition of HIV protease; design: species or system Human immunodeficiency virus
# [2] = Selectivity ratio of IC50 for trypsin to IC50 for thrombin
# [3] = Selectivity ratio of IC50 for tPa to IC50 for thrombin
# Prothrombin = Prothrombin (Homo sapiens, UniProt P00734); assay: Inhibition of thrombin
# [4] = target: Growth hormone secretagogue receptor type 1 (Homo sapiens, UniProt Q92847); assay: Agonist activity at ghrelin receptor; type: functional
# [5] = Oral bioavailability in rat; type: ADME, organism-based; conditions: in vivo
# Neprilysin = Neprilysin (Homo sapiens, UniProt P08473); assay: Inhibition of neutral endopeptidase
# [6] = target: Angiotensin-converting enzyme (Homo sapiens, UniProt P12821); assay: Inhibition of ACE
# [7] = Inhibition of HCV NS3 protease; design: species or system Hepacivirus hominis
# [8] = Inhibition of FTase
# [9] = Inhibition of GGTase
# Hepatitis C virus [10] = assay: microbe, parasite or virus in culture
# Description: Antiviral activity against HCV by cell based replicon assay
# [11] = target: Sonic hedgehog protein (Mus musculus) (UniProt Q62226); assay: Inhibition of sonic hedgehog pathway in mouse NIH-3T3 cells relative to control; type: cell-based; conditions: NIH3T3
# [12] = Inhibition of HDAC by fluorimetry assay
# Beta-secretase 1 = Beta-secretase 1 (Homo sapiens, UniProt P56817); assay: Inhibition of BACE1
# MCF7 = assay: cells; conditions: Homo sapiens
# Description: Antiproliferative activity against human MCF7 cells
# GTPase KRas = GTPase KRas (Homo sapiens, UniProt P01116); assay: Inhibition of Ki-Ras
# [13] = target: Ras-related protein Rap-1A (Homo sapiens, UniProt P62834); assay: Inhibition of Rap1a
# [14] = target: DnaJ homolog subfamily A member 1 (Homo sapiens, UniProt P31689); assay: Inhibition of HDJ2
# [15] = Half life in dog; type: ADME, organism-based, Canis lupus familiaris; conditions: in vivo
# [16] = Inhibition of HCV 1a NS3 protease; design: species or system Hepatitis C virus subtype 1a
# Hepatitis C virus [17] = assay: Inhibition of HCV 1b NS3 protease; design: species or system Hepatitis C virus subtype 1b
# Neprilysin, sequence (P08473 whole entry): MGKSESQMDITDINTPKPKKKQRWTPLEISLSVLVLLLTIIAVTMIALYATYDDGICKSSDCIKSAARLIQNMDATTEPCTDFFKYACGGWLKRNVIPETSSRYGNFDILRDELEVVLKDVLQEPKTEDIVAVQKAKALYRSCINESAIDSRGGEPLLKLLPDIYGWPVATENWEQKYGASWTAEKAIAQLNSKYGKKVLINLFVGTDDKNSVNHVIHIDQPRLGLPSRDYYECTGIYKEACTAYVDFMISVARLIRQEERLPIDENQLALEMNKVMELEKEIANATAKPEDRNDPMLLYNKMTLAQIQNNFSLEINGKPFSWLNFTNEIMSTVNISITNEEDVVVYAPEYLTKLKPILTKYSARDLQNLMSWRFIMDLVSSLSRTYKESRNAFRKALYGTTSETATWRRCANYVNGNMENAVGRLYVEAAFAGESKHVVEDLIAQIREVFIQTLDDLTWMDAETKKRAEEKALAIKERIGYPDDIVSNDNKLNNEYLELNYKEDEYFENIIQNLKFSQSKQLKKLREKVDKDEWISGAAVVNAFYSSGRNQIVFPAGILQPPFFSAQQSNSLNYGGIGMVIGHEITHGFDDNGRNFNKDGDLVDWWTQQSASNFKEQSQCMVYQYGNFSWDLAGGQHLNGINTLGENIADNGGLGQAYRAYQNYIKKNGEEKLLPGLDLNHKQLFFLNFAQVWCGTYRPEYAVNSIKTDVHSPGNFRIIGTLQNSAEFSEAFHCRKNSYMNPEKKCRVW
# Growth hormone secretagogue receptor type 1, sequence (Q92847 whole entry): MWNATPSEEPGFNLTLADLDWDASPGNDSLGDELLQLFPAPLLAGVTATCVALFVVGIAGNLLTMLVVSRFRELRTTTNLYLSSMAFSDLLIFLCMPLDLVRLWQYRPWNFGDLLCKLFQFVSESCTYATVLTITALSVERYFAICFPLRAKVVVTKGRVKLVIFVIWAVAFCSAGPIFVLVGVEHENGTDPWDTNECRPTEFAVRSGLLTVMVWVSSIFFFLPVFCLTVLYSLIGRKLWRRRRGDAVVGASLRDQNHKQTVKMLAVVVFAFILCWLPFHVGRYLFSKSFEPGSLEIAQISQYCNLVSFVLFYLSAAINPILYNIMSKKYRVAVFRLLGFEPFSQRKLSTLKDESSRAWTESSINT
# DnaJ homolog subfamily A member 1, sequence (P31689 whole entry): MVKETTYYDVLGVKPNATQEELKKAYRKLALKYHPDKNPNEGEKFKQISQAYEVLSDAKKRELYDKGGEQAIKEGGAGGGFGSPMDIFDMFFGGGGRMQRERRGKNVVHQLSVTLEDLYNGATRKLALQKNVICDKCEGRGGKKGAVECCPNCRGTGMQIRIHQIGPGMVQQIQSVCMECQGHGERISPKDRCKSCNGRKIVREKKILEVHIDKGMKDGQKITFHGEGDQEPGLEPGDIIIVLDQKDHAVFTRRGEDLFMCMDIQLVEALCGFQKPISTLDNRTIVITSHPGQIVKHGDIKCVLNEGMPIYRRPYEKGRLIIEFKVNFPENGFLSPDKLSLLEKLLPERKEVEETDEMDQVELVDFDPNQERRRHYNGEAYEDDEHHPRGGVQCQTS
# Angiotensin-converting enzyme, sequence (P12821 whole entry): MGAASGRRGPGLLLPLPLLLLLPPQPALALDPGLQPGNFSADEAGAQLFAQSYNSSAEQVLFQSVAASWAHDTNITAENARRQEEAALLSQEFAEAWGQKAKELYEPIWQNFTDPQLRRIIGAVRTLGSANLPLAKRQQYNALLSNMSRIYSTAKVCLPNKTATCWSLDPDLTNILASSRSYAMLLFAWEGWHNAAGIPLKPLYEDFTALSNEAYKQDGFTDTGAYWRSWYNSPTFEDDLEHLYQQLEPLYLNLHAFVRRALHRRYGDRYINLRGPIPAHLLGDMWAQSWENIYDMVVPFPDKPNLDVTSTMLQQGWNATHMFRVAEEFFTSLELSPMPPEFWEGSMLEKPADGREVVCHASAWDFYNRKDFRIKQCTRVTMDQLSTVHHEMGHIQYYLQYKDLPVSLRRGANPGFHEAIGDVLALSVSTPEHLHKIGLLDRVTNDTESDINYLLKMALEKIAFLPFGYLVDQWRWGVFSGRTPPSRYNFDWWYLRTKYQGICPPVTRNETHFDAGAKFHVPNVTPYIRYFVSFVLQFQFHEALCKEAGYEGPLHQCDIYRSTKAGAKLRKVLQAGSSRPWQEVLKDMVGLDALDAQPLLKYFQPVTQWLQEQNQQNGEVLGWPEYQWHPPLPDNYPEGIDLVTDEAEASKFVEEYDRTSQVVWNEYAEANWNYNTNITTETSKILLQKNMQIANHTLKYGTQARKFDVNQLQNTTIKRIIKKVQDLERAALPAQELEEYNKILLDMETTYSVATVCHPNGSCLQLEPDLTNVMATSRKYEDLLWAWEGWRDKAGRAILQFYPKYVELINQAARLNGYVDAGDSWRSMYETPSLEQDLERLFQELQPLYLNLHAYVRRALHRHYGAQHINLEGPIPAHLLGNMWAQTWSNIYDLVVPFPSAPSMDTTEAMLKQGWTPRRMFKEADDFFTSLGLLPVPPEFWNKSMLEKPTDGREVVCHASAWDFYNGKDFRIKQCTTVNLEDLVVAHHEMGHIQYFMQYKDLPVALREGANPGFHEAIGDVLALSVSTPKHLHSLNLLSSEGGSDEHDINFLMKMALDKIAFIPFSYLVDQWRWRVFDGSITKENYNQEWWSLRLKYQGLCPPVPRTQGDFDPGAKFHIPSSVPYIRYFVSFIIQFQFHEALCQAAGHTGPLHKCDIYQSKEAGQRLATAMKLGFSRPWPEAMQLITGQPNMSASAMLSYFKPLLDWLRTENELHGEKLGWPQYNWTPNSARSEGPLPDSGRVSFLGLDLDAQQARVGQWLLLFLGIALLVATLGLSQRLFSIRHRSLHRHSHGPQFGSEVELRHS
# GTPase KRas, sequence (P01116 whole entry): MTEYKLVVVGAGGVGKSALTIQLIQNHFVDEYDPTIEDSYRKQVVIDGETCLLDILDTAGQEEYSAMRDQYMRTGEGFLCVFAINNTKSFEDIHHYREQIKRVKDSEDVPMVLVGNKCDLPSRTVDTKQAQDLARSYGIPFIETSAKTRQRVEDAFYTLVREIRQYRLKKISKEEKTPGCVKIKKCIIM
# Ras-related protein Rap-1A, sequence (P62834 whole entry): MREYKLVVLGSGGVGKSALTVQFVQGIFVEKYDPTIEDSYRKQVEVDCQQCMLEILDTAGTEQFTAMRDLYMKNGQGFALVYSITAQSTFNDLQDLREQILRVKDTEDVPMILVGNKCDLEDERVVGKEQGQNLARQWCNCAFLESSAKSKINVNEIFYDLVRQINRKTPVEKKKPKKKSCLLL
# Beta-secretase 1, sequence (P56817 whole entry): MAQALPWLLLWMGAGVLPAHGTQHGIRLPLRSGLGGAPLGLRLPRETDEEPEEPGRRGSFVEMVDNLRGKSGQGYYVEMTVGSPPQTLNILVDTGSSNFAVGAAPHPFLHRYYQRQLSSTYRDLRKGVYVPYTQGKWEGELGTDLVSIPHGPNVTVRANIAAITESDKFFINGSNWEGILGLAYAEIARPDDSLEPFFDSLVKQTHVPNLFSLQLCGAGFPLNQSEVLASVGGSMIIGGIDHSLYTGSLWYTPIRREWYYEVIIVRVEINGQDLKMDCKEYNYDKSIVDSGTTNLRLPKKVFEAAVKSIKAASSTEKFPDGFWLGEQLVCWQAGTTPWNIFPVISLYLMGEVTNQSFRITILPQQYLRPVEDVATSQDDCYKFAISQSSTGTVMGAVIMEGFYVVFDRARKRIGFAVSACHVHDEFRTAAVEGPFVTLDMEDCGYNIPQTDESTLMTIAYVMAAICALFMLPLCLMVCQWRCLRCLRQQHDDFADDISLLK
structure (smiles),measurement,setting,value
CC(C)(C)C(=O)NCCOC(=O)N[C@@H](Cc1ccccc1)C(=O)N[C@H]1CCC(=O)NCCOC(=O)[C@H](O)[C@H](CC2CCCCC2)NC1=O,IC50,Renin,56 nM
CC[C@H](C)[C@H](NC(=O)[C@@H](NC[C@@H]1COCCCCCCCN(C(=O)[C@H](Cc2ccccc2)NC(=O)OC(C)(C)C)[C@@H](C)C(=O)N1)C(C)C)C(=O)N[C@@H](Cc1cnc[nH]1)C(=O)OC,IC50,Renin,2700 nM
CC[C@H](C)[C@H](NC(=O)[C@@H]1CCCN1C[C@H](O)[C@@H]1Cc2ccc(cc2)OCCCC(=O)N[C@@H](CC(N)=O)C(=O)N1)C(=O)N[C@H](C(N)=O)C(C)C,Ki,[1],12 nM
CC[C@H](C)[C@@H]1NC(=O)[C@@H](NC[C@@H](O)[C@H](Cc2ccc(O)cc2)NC[C@H](C(C)C)N2CCCC2=O)Cc2ccc(cc2)OCCCNC1=O,Ki,[1],1.8 nM
O=C1COc2ccc(Cl)cc2CNC(=O)[C@@H]2CCCN2C(=O)[C@@H](C2CCCCC2)NC(=O)CCCCN1,Ratio IC50,[2],> 2000
same,Ratio IC50,[3],> 2000
same,Ki,Prothrombin,0.4 nM
O=C1COc2ccc(Cl)cc2CNC(=O)[C@@H]2CCCN2C(=O)[C@@H](C2CCCCC2)NC(=O)CN1,Ratio IC50,[2],> 2000
same,Ratio IC50,[3],> 2000
same,Ki,Prothrombin,0.4 nM
C[C@@H]1CN[C@@H](C2CC2)C(=O)N(C)[C@H](C)C(=O)N[C@H](Cc2ccc(F)cc2)C(=O)NCCCc2ccccc2O1 [ULIMORELIN],EC50,[4],27 nM
same,bioavailability,[5],16%
O=C1N[C@H](C(=O)O)CCCCCc2cccc(c2)C[C@H]1CS,IC50,Neprilysin,8 nM
same,IC50,[6],4 nM
CCC[C@@H]1NCCOc2ccccc2/C=C/CNC(=O)[C@@H](Cc2ccccc2)NC(=O)CN(C)C1=O,EC50,[4],68 nM
CCC[C@H](NC(=O)[C@@H]1C[C@@H](OCc2ccccc2)CN1C(=O)[C@@H](NC(=O)[C@@H](NC(=O)[C@H](CC(=O)O)NC(=O)[C@H](CC(=O)O)NC(C)=O)[C@@H](C)CC)C(C)C)C(=O)O (Ac-DDIV[Hyp](Bn)[Nva]-OH),IC50,[7],7000 nM
COc1ccc2c(c1)OCC/C=C\CCCCN(C[C@@H](O)[C@H](Cc1ccccc1)NC(=O)O[C@H]1CO[C@H]3OCC[C@H]31)S2(=O)=O,IC50,[1],4.6 nM
same,Ki,[1],0.012 nM
N#Cc1ccccc1Oc1ccc2cccc(N3CCN(Cc4cnc[nH]4)CC3=O)c2c1,IC50,[8],4500 nM
O=C1COc2ccc(Cl)cc2CNC(=O)[C@@H]2CCCN2C(=O)[C@@H](C2CCCCC2)NC(=O)CCN1,Ki,Prothrombin,0.4 nM
N#Cc1ccc2cc1Oc1ccc3c(c1)[C@@H](CC3)N1CC[C@@H](NCc3cncn3C2)C1=O,IC50,[9],18000 nM
same,IC50,[8],< 1.6 nM
C=C[C@@H]1C[C@]1(NC(=O)[C@@H]1C[C@@H]2CN1C(=O)[C@H](C(C)(C)C)NC(=O)OCCCC/C=C/c1ccc3ccnc(c3c1)O2)C(=O)NS(=O)(=O)C1CC1,Ki,[7],0.18 nM
same,IC50,Hepatitis C virus [10],8.7 nM
C[C@H]1COC(=O)[C@@H](N)CC/C=C/C[C@@H](CC(=O)N(CCO)Cc2ccccc2)C(=O)N1,Emax,[11],30%
C[C@H]1NCc2cncn2Cc2ccc(C#N)c(c2)Oc2ccc3cccc(c3c2)NC1=O,IC50,[9],313 nM
same,IC50,[8],1.3 nM
O=C1N[C@H](C(=O)N2C[C@H](O)C[C@H]2C(=O)O)CCCCCC[C@H]1CS,IC50,Neprilysin,0.8 nM
C=C[C@@H]1C[C@]1(NC(=O)[C@@H]1C[C@@H](Oc2cc(-c3ccccc3)nc3cc(OC)ccc23)CN1C(=O)[C@@H](NC(=O)[C@@H](NC(C)=O)C1CCCCC1)C(C)(C)C)C(=O)O,IC50,[7],1 nM
O=C(CCCCCC1C2=NC(Cc3ccccc3)=C(O2)C(Cc2ccccc2)CCn2cc(nn2)CCCN1Cc1ccccc1)NO (stereo unspecified),IC50,[12],4300 nM
O=C(C[C@@H]1C/C=C/CCC(=O)O[C@H](c2ccccc2)CNC1=O)NCc1ccc(Cl)cc1,Emax,[11],91%
CC[C@H](C)[C@@H]1NC(=O)[C@@H](NC[C@H](O)[C@H](Cc2ccccc2)NC(=O)OC(C)(C)C)Cc2ccc(cc2)Oc2ccc(cc2)C[C@@H](C(=O)OC)NC1=O,Ki,[1],15 nM
CCCN(c1cc(COC(=O)[C@](C)(N)Cc2ccccc2)cc(C(=O)N[C@H](C)c2ccc(F)cc2)c1)S(C)(=O)=O,IC50,Beta-secretase 1,27 nM
CC(C)CN(C[C@@H](O)[C@H](Cc1ccccc1)NC(=O)O[C@H]1CO[C@H]2OCC[C@H]21)S(=O)(=O)c1ccc(N)cc1,Ki,[1],0.015 nM
O=C(CCCCCC1C2=NC(Cc3ccccc3)=C(O2)C(Cc2ccccc2)CCCCn2cc(nn2)CCCN1Cc1ccccc1)NO (stereo unspecified),IC50,[12],6100 nM
O=C1Cn2c(Cl)cnc(c2=O)N[C@@H](Cc2ccccc2)CNCCCNCCOc2ccc(Cl)cc2CN1,Ratio IC50,[2],23000
same,Ratio IC50,[3],7100
same,Ki,Prothrombin,0.09 nM
CC[C@H](C)[C@@H]1NC(=O)[C@@H](NC[C@@H](O)[C@@H]2Cc3ccc(cc3)OCCCCC(=O)N[C@@H](C(C)C)C(=O)N2)Cc2ccc(cc2)OCCCNC1=O,Ki,[1],3 nM
NC(N)=NCCC[C@@H]1NC(=O)[C@@H]2CCCN2C(=O)[C@@H](NC=O)CNC(=O)/C=C/[C@H](Cc2ccc(O)cc2)NC(=O)[C@@H](Cc2ccccc2)NC(=O)C1=O [CYCLOTHEONAMIDE A],Ki,Prothrombin,180 nM
CC[C@H](C)[C@H](NC(=O)[C@@H](NC[C@@H]1COCCCCCN(C(=O)[C@H](Cc2ccccc2)NC(=O)OC(C)(C)C)[C@@H](C)C(=O)N1)C(C)C)C(=O)N[C@@H](Cc1cnc[nH]1)C(=O)OC,IC50,Renin,69000 nM
Cc1ncn(Cc2ccc(C#N)cc2)c1CN1CC(=O)N(c2cccc(Cl)c2)C[C@@H]1CCS(C)(=O)=O,IC50,[8],475 nM
CC(C)CCN(C[C@@H](O)[C@@H]1Cc2ccc(cc2)OCCCC(=O)N[C@@H](CC(N)=O)C(=O)N1)S(=O)(=O)c1ccccc1,Ki,[1],0.6 nM
CC[C@H](C)[C@H](NC(=O)[C@@H](C[C@H](O)[C@H](CC1CCCCC1)NC(=O)[C@@H]1Cc2cn(cn2)CC(=O)N2CCC[C@H]2C(=O)N[C@@H](Cc2ccccc2)C(=O)N1)C(C)C)C(=O)NCc1ccccn1,IC50,Renin,0.29 nM
O=S1(=O)NCCCNc2nc(ncc2Br)Nc2cccc1c2,IC50,MCF7,200 nM
COc1ccc2c(c1)OCC/C=C/CCCCN(C[C@@H](O)[C@H](Cc1ccccc1)NC(=O)O[C@H]1CO[C@H]3OCC[C@H]31)S2(=O)=O,IC50,[1],7 nM
same,Ki,[1],0.06 nM
N#Cc1ccc2cc1Oc1ccc3cccc(c3c1)N1CCN(CC1=O)Cc1cncn1C2,EC50,GTPase KRas,> 10000 nM
same,EC50,[13],> 10000 nM
same,EC50,[14],2 nM
same,IC50,[9],301 nM
same,IC50,[8],0.1 nM
same,half-life,[15],1 h
N#Cc1ccc2cc1Oc1ccc(CCC3CCCCC3)c(c1)CN1CCN(CC1=O)Cc1cncn1C2,EC50,GTPase KRas,1060 nM
same,EC50,[13],140 nM
same,EC50,[14],12 nM
same,IC50,[9],1.7 nM
same,IC50,[8],1.6 nM
CC[C@H](C)[C@@H]1NCCOc2ccccc2CCCNC(=O)[C@@H](Cc2ccccc2)NC(=O)[C@@H](C)N(C)C1=O,Ki,[4],6 nM
CC[C@H](C)[C@H](NC(=O)[C@@H](NC[C@@H]1COCCCN(C(=O)[C@H](Cc2ccccc2)NC(=O)OC(C)(C)C)[C@@H](C)C(=O)N1)C(C)C)C(=O)N[C@@H](Cc1cnc[nH]1)C(=O)OC,IC50,Renin,> 100000 nM
COc1ccc(S(=O)(=O)N(CC(C)C)C[C@@H](O)[C@@H]2CCCCCCCCOc3c(O)cccc3C(=O)N2)cc1,IC50,[1],300 nM
same,Ki,[1],0.7 nM
O=C1N[C@H](C(=O)O)CCCCCc2ccccc2C[C@H]1CS,IC50,Neprilysin,3 nM
same,IC50,[6],8000 nM
COc1ccc2c(O[C@@H]3C[C@H]4C(=O)N[C@]5(C(=O)O)C[C@H]5/C=C\CCCCC[C@H](NC(=O)OC(C)(C)C)C(=O)N4C3)cc(-c3ccccc3)nc2c1,Ki,[16],1.4 nM
same,Ki,Hepatitis C virus [17],1 nM
same,EC50,Hepatitis C virus [10],7 nM
O=C1COc2ccc(Cl)cc2CNC(=O)[C@@H]2CCCN2C(=O)[C@@H](C2CCCCC2)NC(=O)CCCN1,Ratio IC50,[2],> 2000
same,Ratio IC50,[3],> 2000
C=C[C@@H]1C[C@]1(NC(=O)[C@@H]1C[C@@H]2CN1C(=O)[C@H](C(C)(C)C)NC(=O)OCCCCCc1ccc3nc(-c4ccccc4)cc(c3c1)O2)C(=O)NS(=O)(=O)C1CC1,Ki,[7],< 0.016 nM
same,EC50,Hepatitis C virus [10],6.7 nM
